# According to paper PMC6934184, “Selective DNA-PKcs inhibition extends the therapeutic index of localized radiotherapy and chemotherapy” (The Journal of Clinical Investigation, 2019):
# Target: T1, PIK3CB/PIK3R1 (p110β/p85α) (Homo sapiens, UniProt P42338)
# T1 construct: purchased Thermo Fisher Scientific (Life Technologies) SelectScreen
# Test: SelectScreen Adapta
# Format: biochemical
# How it was run: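 Percent values come from Thermo SelectScreen profiling of NU5455, combining activity and binding assays. CSF1R was run in Z'LYTE format at Km app ATP, and CAMK1 in Adapta format with ATP listed at 10.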
# T1 sequence (P42338 whole entry): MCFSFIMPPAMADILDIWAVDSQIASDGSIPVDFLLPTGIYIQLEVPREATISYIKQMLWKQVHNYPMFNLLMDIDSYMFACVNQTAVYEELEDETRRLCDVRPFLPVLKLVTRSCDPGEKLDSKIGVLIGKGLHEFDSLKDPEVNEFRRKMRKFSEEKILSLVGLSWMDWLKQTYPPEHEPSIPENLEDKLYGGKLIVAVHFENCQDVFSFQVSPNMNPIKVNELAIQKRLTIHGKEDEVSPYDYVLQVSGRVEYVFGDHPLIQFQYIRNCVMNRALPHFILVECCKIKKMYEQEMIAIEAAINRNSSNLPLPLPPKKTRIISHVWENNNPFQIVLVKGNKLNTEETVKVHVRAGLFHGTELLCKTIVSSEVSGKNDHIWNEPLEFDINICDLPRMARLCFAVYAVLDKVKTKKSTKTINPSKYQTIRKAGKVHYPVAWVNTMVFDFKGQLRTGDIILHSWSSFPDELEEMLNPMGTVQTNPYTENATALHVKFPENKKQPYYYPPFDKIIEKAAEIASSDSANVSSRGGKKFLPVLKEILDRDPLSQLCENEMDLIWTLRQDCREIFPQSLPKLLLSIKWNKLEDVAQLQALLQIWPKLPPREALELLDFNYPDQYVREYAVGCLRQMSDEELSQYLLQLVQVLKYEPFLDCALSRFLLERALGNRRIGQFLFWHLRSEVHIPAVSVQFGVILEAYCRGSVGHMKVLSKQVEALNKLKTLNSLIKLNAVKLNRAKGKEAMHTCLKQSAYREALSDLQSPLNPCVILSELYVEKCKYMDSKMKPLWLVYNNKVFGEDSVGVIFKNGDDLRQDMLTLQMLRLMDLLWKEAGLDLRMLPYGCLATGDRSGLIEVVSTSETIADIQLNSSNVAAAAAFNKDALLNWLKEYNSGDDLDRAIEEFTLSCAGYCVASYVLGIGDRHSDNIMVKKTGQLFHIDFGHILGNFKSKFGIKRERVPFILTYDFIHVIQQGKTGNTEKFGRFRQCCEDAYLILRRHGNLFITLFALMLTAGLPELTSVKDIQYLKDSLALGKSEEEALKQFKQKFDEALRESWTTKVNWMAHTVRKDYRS
# T1 sequence (P27986 whole entry partner): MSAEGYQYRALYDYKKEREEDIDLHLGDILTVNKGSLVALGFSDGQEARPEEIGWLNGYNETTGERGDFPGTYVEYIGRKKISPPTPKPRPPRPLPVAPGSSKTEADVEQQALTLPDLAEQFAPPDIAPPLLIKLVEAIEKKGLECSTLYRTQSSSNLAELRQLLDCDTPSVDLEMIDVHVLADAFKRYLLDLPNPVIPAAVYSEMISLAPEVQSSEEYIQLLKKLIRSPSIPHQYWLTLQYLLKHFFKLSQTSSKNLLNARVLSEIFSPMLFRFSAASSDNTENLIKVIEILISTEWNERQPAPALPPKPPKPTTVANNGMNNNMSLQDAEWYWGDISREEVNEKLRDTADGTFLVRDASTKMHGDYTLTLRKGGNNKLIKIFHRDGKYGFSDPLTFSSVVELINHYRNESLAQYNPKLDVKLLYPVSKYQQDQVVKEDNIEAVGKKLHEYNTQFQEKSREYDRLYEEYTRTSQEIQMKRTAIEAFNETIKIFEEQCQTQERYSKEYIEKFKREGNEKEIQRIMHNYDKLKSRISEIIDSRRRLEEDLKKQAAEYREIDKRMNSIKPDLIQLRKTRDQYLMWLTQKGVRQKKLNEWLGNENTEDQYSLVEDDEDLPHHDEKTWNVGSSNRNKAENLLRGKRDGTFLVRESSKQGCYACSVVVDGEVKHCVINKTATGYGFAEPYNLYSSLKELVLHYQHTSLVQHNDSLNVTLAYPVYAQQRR
structure (smiles),measurement,value
CN(C(=O)CN1CCOCC1)c1ccc2sc3c(-c4cccc5c(=O)cc(N6CC7CCC(C6)O7)oc45)cccc3c2c1 [NU5455],inhibition at 1 µM,-3.8%
